The values below come from patent US20050165070A1, “Compositions with a biostimulating activity” (priority 2002, published 2005).

Structures are written as SMILES.

For one experiment, the system named is peppers cv. Pathos. Briefly: Biostimulating effect on transplanted pepper seedlings in tunnel, production yield. The conditions noted are these: 10 g/hl; for Berries kg per lot: repeated every 10 days, harvest July 29-August 29; for Increase (%) of berries kg per lot: versus not treated Thesis E. The format is in vivo. From the text:
The whole mixture was brought to a volume of 1 liter by the addition of water, in order to obtain solutions of each compound with a concentration of 50 g/liter. Determination of the amplification of the biostimulating effect obtained by applying compound (I) in the presence of a solution of proline. Seedlings of peppers cv. Pathos were transplanted in a tunnel (April 16, AT). The lots were distributed according to the random block scheme with 5 repetitions per thesis. Each repetition consisted of 15 plants. At the moment of transplanting, the seedlings have a common degree of vegetative development. […] Said treatment was subsequently repeated every 10 days, in a preventive manner, in order to oppose any possible thermal or water stress or stress due to vegetative development. Harvesting was effected from July 29 for the following 30 days, and a production increase was registered in theses B and D, with respect to theses A and C, as indicated in Table 2. The yields are obtained from the average production obtained during the above harvesting period (July 29-August 29).

Another experiment relates to courgettes cv. Diamone. Briefly: Biostimulating activity on transplanted courgette seedlings in field, fruit yield. The class given is in vivo. The conditions noted are these: for Fruit per lot: treatment repeated every 10 days, harvest June 11-August 27, average per lot; for Increase (%) of fruit per lot: with respect to non-treated Thesis F. From the text:
The following examples are provided for merely illustrative purpose and in no way intend to limit the scope of the present invention.
When the biological activity experimentally found is higher than the value of E, said activity should be considered as a synergic effect.
An amount of 50 g of each compound under examination (thiazolidine-4-carboxylic acid (compound I) and N-acyl-thiazolidine-4-carboxylic acid (compound II)) were dispersed in water (800 cc) and vigorously stirred. An excess of 5%, with respect to the stoichiometric quantity, of sodium bicarbonate, was then added in portions. 150 g of a non-ionic surface-active agent were added to favour application to the leaves. The whole mixture was brought to a volume of 1 liter by the addition of water, in order to obtain solutions of each compound with a concentration of 50 g/liter.
Assessment of the biostimulating activity of compound (I), compound (II) and their synergic mixture.
Seedlings of courgettes cv. Diamone, sown and cultivated in a hot greenhouse, were transplanted in a field (May 11, Leggiuno, (Varese)—Italy).
The theses were randomly arranged in lots with four repetitions for each thesis. Each lot consisted of six plants in rows situated at a distance of 1 meter from each other, and at a distance of 1 meter from each other in the same row.
Weeding was performed before the transplant, using 1 kg/ha of trifluralin (volume 550 l/ha).
At the moment transplanting, the seedlings have a common degree of vegetative development.
In order to minimize transplant stress, the seedlings planted were treated respectively with: • Thesis A: with compound (I) (ATC) at a dose of 5 g/hl; • Thesis B: with compound (I) (ATC) at a dose of 10 g/hl; • Thesis C: with compound (II) (AATC) at a dose of 5 g/hl; • Thesis D: with compound (II) (AATC) at a dose of 10 g/hl; • Thesis E: with compound (I) (ATC) at a dose of 5 g/hl in a mixture with compound (II) (AATC) at a dose of 5 g/hl; • Thesis F: no biostimulating treatment.
Said treatment was subsequently repeated every 10 days, in a preventive manner, in order to oppose any possible thermal or water stress or stress due to vegetative development. Harvesting was effected from June 11 to August 27, and the yield increases indicated in Table 1, were registered in the treated theses (A, B, C, D, E), with respect to the non-treated Thesis F. The yields are obtained from the average amount of fruit obtained in each lot during the above-mentioned harvesting period (June 11-August 27).

In the case of `CC(=O)N1CSCC1C(=O)O` (stereo not drawn) [AATC, N-acetylthiazolidine-4-carboxylic acid], in the experiment on peppers cv. Pathos, the “Berries kg per lot” value was found to be 26.40 kg per lot and the “Increase (%) of berries kg per lot” value was “+6.9%”. Further, in the experiment with courgettes cv. Diamone (5 g/hl), the Fruit per lot worked out at 102 and the “Increase (%) of fruit per lot” value is “+5.2%”. In the experiment with courgettes cv. Diamone (10 g/hl), the Fruit per lot stood at 109 and the “Increase (%) of fruit per lot” value is “+12.4%”.
Consider `O=C(O)[C@@H]1CSCN1` [ATC, R-(−)-thiazolidine-4-carboxylic acid], for which, in the experiment on peppers cv. Pathos, the “Berries kg per lot” value amounted to 25.80 kg per lot and the “Increase (%) of berries kg per lot” value is reported as “+4.5%”. Besides, in the experiment on courgettes cv. Diamone (5 g/hl), the Fruit per lot turned out to be 100 and the “Increase (%) of fruit per lot” value was “+3.1%”. In the experiment with courgettes cv. Diamone (10 g/hl), the Fruit per lot is 105 and the “Increase (%) of fruit per lot” value was “+8.2%”.
